From patent US20040191842A1, “Chemopreventive and therapeutic aspects of polyphenolic compositions and assays” (Medical College of Georgia Research Institute, Inc., priority 2002, published 2004) come the findings set out here.

Data set [1] concerns normal human primary epidermal keratinocytes. In words: Immunocytochemistry of differentiation markers in keratinocytes. The following applies: 50-100 μM EGCG, 24 hours. It is filed as cell-based. As to the method: Immunocytochemistry. Normal human keratinocytes were seeded in 8-well chamber slides (Nagle Nunc International, Naperville, Ill.) 12 hours prior to EGCG treatment. At the end of a 24-hour treatment, the slides were washed with PBS and fixed in a cold 4% paraformaldehyde solution for 10 minutes. […] The primary antibodies, rabbit-anti-human p57 polyclonal antibody C-19, rabbit anti-human keratin 1, and filaggrin antibodies were applied for 1 hour at 37° C. at the dilutions recommended by the manufacturers. The streptavidin detection technique (Biogenex, USA) was used with 3-amino-9-ethylcarbazole as chromogen. Negative control sections consisted of tissues treated with 1% diluted normal goat serum instead of primary antibody. Mayer's hematoxylin was used as a counter-stain.

Another data set deals with caspase 3. In words: Caspase 3 activity assay, normal human epidermal keratinocytes. The following applies: EGCG 0 to 200 μM or 0.2 mg/ml GTPPs, 24 h. The format is cell-based. As to the method:
Caspase 3 activity assay. The Caspase 3 Apoptosis Detection Kit was purchased from Santa Cruz Biotech. Inc. In a 24 well tissue culture plate, 10^5 cells/well of control or treated cells in triplicates were plated. […] To each well, 100 μl of 2×reaction buffer was added with 10 mM DTT. Finally, 5 μl of DEVD-AFC substrate was added to each well containing cell lysates. The reaction mixtures were incubated for 1 hour at 37° C. The caspase 3 activity in each well was measured using a fluorescence plate reader set for 405 nanometer (nm) excitation and 505 nm emission.
Caspase 3 activity assay. The Caspase 3 Apoptosis Detection Kit was purchased from Santa Cruz Biotech. Inc. In a 24 well tissue culture plate, 10^5 cells/well of cells in triplicates were plated. […] To each well, 100 μl of 2×reaction buffer was added with […]. Finally, 5 μl of DEVD-AFC substrate was added to each well containing cell lysates. The reaction mixtures were incubated for 1 hour at 37° C. The caspase 3 activity in each well was measured using a fluorescence microplate reader set for 405 nm excitation and 505 nm emission.
Caspase 3 activity assay. […] The reaction mixtures were incubated for 1 hour at 37° C., and caspase 3 activity in each well was measured using a fluorescence micro-plate reader at a wavelength of 405 nm for excitation and 505 nm for emission.

Data set [2] has as its system salivary acenar cells (AC) and duct cells (DC), HSG and OSC tumor cells. In words: Protection of salivary gland cells from CDDP and UVC (SDH, BrdU). The settings on record: pretreatment of EGCG. An excerpt:
Human immortalized salivary acenar cells (AC) and duct cells (DC), along with human salivary gland tumor cells (HSG, a radiation-resistant cell line) and oral squamous carcinoma cells (OSC) were either treated by CDDP or irradiated by UVC with or without the presence of EGCG, followed by determination of the mitochondrial succinate dehydrogenase (SDH) activity, a measurement of mitochondrial damage and BrdU incorporation determination.

A further data set deals with p57 (KIP2). In words: Western blot of p57 in SCC25 oral carcinoma cells. It is filed as cell-based, human. The settings on record: 50 μM EGCG or 0.2 mg/ml GTPPs, 24 h.
The test system of the next data set is OSC-2 cells. In words: MTT assay (mitochondrial SDH activity), OSC2 (OSC-2) cells. The settings on record: increasing EGCG and 0.2 mg/ml GTPPs, 24 hour.
The next data set has as its system p57. In words: Western blot of p57 in mammary epithelial cells. The format is cell-based, human. The following applies: EGCG 15 to 200 μM, 24 h. How it is done: Western blot analysis. The keratinocytes and the mammary epithelial cells were placed in KGM-2 and MEGM, respectively, overnight prior to treatment. Cells were lysed, after 24-hour treatment, in RIPA buffer (1% NP-40, 1% sodium deoxycholate, 0.1% SDS, 0.15 M NaCl, 0.01 M sodium phosphate, pH 7.2, and 1% Trasylol) containing proteinase inhibitors (1 mM PMSF, 1 μg/ml each of aprotinin, leupeptin, and pepstatin). The concentration of protein in each sample was determined using the BioRad DC Protein Assay and spectrophotometry. 50 μg of protein from each sample and a BioRad molecular weight standard marker were run on a 10% SDS-PAGE, followed by transfer to nitrocellulose membranes. Nonspecific binding to the membranes was blocked with 10% nonfat milk. Primary polyclonal (rabbit) antibodies and a horseradish peroxidase-conjugated goat anti-rabbit secondary antibody were used in conjunction with the ECL Chemiluminescence Kit (Amersham Pharmacia Biotech, New Jersey) and membranes were exposed to radiographic films for detection. Western blots were digitized for comparison of the intensity for each band using the ImageTool image analysis software program (University of Texas Health Science Center, San Antonio, Tex.). The integrated density of each band was measured using identical 1480 pixel areas of each Apfa-1 or Actin band at a scale of densities from 0 to 255. […]

A further data set deals with caspase 14. In words: Immunoblot of caspase 14 protein in NHEK. It is filed as cell-based, human. As to the method: To identify additional factors those suppress EGCG -induced apoptosis and facilitate cell differentiation in NHEK, exponentially growing NHEK (Cambrex, Baltimore, Md.) were exposed to 100 μM EGCG for 0, 2, 6 and 24 hours, prior to total RNA isolation using the Qiagen RNeasy mini kit (Valencia, Calif.), which was followed by RT-PCR labeling and hybridization with the Human Apoptosis Macroarray membrane (Sigma-Genosys, The Woodlands, Tex.). Total cell lysates also were collected following a variety of EGCG treatments. The protein levels for caspase 14 and p21 were determined by immuno-blotting using antibodies specific for caspase 14 and p21 (Santa Cruz Biotechnology, Santa Cruz, Calif.).

Structures are written as SMILES. Entries after “also recorded” stand apart in the source; their conditions may differ.

Procedure for OSC-2 cells: This method detects the activity of mitochondrial succinate dehydrogenase (SDH). In a 96-well plate, 1.5×10^4 cells were seeded in each well. After variety of treatments, 100 μl of 2% MTT was added to each well and the plate was incubated at 37° C. for 30 minutes. 100 μl of 0.2 M Tris (pH 7.7) with 4% formalin was added to each well. After incubation at room temperature for 5 minutes, liquid was removed and the wells were allowed to dry. Each well was rinsed with 200 μl water followed by addition of 100 μl DMSO (6.35% 0.1 N NaOH in DMSO) to each well. The coloration was measured by a Thermo MAX microplate reader (Molecular Devices Corp. Sunnyvale, Calif. using wavelengths of 562 nm. Experiments were repeated three times with triplicate samples for each experiment.
This method directly detects the activity of mitochondrial succinate dehydrogenase (SDH). Changes in SDH activity is a measurement of cell viability when stress is introduced in cell culture through chemical or physical means. Cells (1.5×10^4 cells/well) were seeded in a 96-well microplate and treated with the indicated doses of EGCG for 24 hours. After the treatment, the cells in each well were washed with 200 μl of phosphate-buffered saline (PBS), incubated with 100 μl of 2% MTT in a solution of 0.05 M Tris, 0.5 mM MgCl2, 2.5 mM CoCl2, and 0.25 M disodiumn succinate as substrate (Sigma) at 37° C. for 30 minutes. Cells were fixed in situ by the addition of 100 μl of 4% formalin in 0.2 M Tris (pH 7.7), and after a 5 minute incubation at room temperature liquid was removed and the wells were allowed to dry. Each well was rinsed with 200 μl water and cells were solubilized by the addition of 100 μl of 6.35% 0.1 N NaOH in DMSO. The colored formazan product was measured by a Thermo MAX micro plate reader (Molecular Devices Corp., Sunnyvale, Calif.) at a wavelength of 562 nm. […]
This method directly detects the activity of mitochondrial succinate dehydrogenase (SDH). […] Solubilized colored formazan product was measured using a Thermo MAX microplate reader (Molecular Devices Corp., Sunnyvale, Calif.) at a wavelength of 562 nm.
Procedure for p57 (KIP2): Cell treatments. For 24 hours treatments, exponentially growing cells with 40% confluency (to minimize differentiation and spontaneous apoptosis) were either maintained in 50 μM EGCG (2.29 mg/100 ml) or 0.2 mg/ml of GTPPs in tissue culture flasks (25 cm^2). Control flasks contained cells without any treatment. To test whether BaP or NNK interfere with the induction of p57, the human keratinocytes were treated with 0.12 μM BaP, or 10 μM NNK, either alone or in combination with 50 μM EGCG. To examine the time course of p57 induction, cells were treated with 50 μM EGCG and harvested for Western analysis at 30 minutes, 2 hours, 6 hours, and 24 hours. The human keratinocytes were treated when the cell density reached 85-90% confluency (to mimic the epithelium).
Western blot analysis. Cells from different treatment groups were lysed in RIPA buffer (1% NP-40, 1% sodium deoxycholate, 0.1% SDS, 0.15 M NaCl, 0.01 M sodium phosphate, pH 7.2, and 1% Trasylol) containing proteinase inhibitors (1 mM PMSF, 1 μg/ml each of aprotinin, leupeptin, and pepstatin). The concentration of protein in each sample was determined using the BioRad DC Protein Assay and spectrophotometry. Fifty micrograms (μg) of protein from each sample and a BioRad molecular weight standard marker were run on a 10% SDS-PAGE, followed by transfer to nitrocellulose membranes. […]

For the molecule `O=C(O[C@@H]1Cc2c(O)cc(O)cc2O[C@@H]1c1cc(O)c(O)c(O)c1)c1cc(O)c(O)c(O)c1` [EGCG, (−)-epigallocatechin-3-gallate], in data set [1], the “differentiation (p57/KIP2, keratin 1, filaggrin)” value is given as “underwent differentiation in 24 hours”. Moreover, the “caspase 3 activity” value in the data set on caspase 3 was “only exhibited basal levels of caspase 3 activities; also recorded: not significantly affected”. The “protection from CDDP and UVC cytotoxicity” value in data set [2] is “significantly protected the normal salivary gland cells from CDDP and UVC, but not the tumor cells”. Besides, the p57 levels entry is “remained unchanged” with p57 (KIP2) and “no significant changes” in the data set on p57. In the data set on OSC-2 cells, the SDH activities entry is reported as “decreased”. Moreover, the “production of immunoreactive caspase 14 increased” value in the data set with caspase 14 (30 μM EGCG (Example 10)) is 5 fold. Also, the “increase in caspase 14 protein” value in the data set with caspase 14 (30 μM EGCG, 48 hours) is reported as 26 fold; in the data set on caspase 14 (100 μM EGCG, 24 hours), 2 fold; with caspase 14 (100 μM EGCG, 48 hours), 5 folds; in the data set on caspase 14 (EGCG at or below 50 μM, 24 hours) it was above 5 fold.
